# Reference: patent publication US9593149B2, “Amylin and calcitonin receptor agonist” (Novo Nordisk A/S, priority 2014, dated 2017)
# Numbered stars: 1 amine (or outer) side, 2 acyl side, 3 side chain; on linkers, the order of the positions; unused ones are H or OH. Peptide text beside a SMILES is read from it. * marks the point of attachment. C20 diacid = O=C(O)CCCCCCCCCCCCCCCCCCC(=O)*; C18 diacid = O=C(O)CCCCCCCCCCCCCCCCC(=O)*; γGlu = O=C(O)[C@H](CCC(=O)[*:2])N[*:1]
# Assay: Assay (IV) determination of solubility
# Type: physicochemical
# Method: Assay (IV)—Determination of Solubility
# The mimylin peptide was dissolved in water at ˜500 nmol/ml and mixed 1:1 with a series of buffers (100 mM glycylglycine pH 3.0, 100 mM glycylglycine pH 4.0, 100 mM glycylglycine pH 5.0, 100 mM bistrispropane pH 6.0, 100 mM bistrispropane pH 6.5, 100 mM bistrispropane pH 7.0, 100 mM bistrispropane pH 7.5, 100 mM bistrispropane pH 8.0).
Compound,Solubility (pH 3.0),Solubility (pH 4.0),solubility at 18 h (pH 5.0) [µM],Solubility (pH 6.0),Solubility (pH 6.5),Solubility (pH 7.0),Solubility (pH 7.5),Solubility (pH 8.0),solubility at 18 h (pH 4.0) [µM],Solubility (pH 5.0)
"CC(C)C[C@H](NC(=O)[C@H](C)NC(=O)[C@H](C)NC(=O)[C@@H](NC(=O)[C@H](CO)NC(=O)[C@H](CC(C)C)NC(=O)[C@H](CCC(=O)O)NC(=O)[C@H](CO)NC(=O)[C@H](C)NC(=O)CC[C@H](NC(=O)CCCCCCCCCCCCCCCCCCC(=O)O)C(=O)O)[C@@H](C)O)C(=O)NCC(=O)N[C@@H](CCCNC(=N)N)C(=O)N[C@@H](CC(C)C)C(=O)N[C@@H](CO)C(=O)N[C@@H](C)C(=O)N[C@@H](CCC(=O)O)C(=O)N[C@@H](CC(C)C)C(=O)N[C@@H](Cc1cnc[nH]1)C(=O)N[C@@H](CCC(=O)O)C(=O)N[C@@H](CC(C)C)C(=O)N[C@@H](C)C(=O)N[C@H](C(=O)N[C@@H](Cc1ccc(O)cc1)C(=O)N1CCC[C@H]1C(=O)N[C@@H](CCCNC(=N)N)C(=O)N[C@H](C(=O)N[C@@H](CCC(=O)O)C(=O)N[C@H](C(=O)NCC(=O)N[C@@H](CO)C(=O)NCC(=O)N[C@@H](CO)C(=O)N[C@@H](Cc1ccc(O)cc1)C(N)=O)[C@@H](C)O)[C@@H](C)O)[C@@H](C)O [compound 80, [N-terminal(C20 diacid-gGlu), des1, 23Y, 30S, 31G, 33Y]mimylin] ({C20 diacid-γGlu}-ASELSTAALGRLSAELHELATYPRTETGSGSY-NH2)",≧200 μM,≧200 μM,10,≧200 μM,≧200 μM,≧200 μM,≧200 μM,≧200 μM,,
"CC(C)C[C@H](NC(=O)[C@H](CCC(=O)O)NC(=O)[C@H](C)NC(=O)[C@H](CO)NC(=O)[C@H](CC(C)C)NC(=O)[C@H](CCCNC(=N)N)NC(=O)CNC(=O)[C@H](CC(C)C)NC(=O)[C@@H](NC(=O)[C@H](C)NC(=O)[C@@H](NC(=O)[C@H](CO)NC(=O)[C@H](CC(C)C)NC(=O)[C@H](CCC(=O)O)NC(=O)[C@H](CO)NC(=O)[C@H](C)NC(=O)[C@H](CCC(=O)O)NC(=O)CCCCCCCCCCCCCCCCC(=O)O)[C@@H](C)O)C(C)C)C(=O)N[C@@H](C)C(=O)N[C@@H](CCC(=O)O)C(=O)N[C@@H](CC(C)C)C(=O)N[C@@H](C)C(=O)N[C@H](C(=O)N[C@@H](CC(C)C)C(=O)N1CCC[C@H]1C(=O)N[C@@H](CCCNC(=N)N)C(=O)N[C@H](C(=O)N[C@@H](CCC(=O)O)C(=O)N[C@H](C(=O)NCC(=O)N1CCC[C@H]1C(=O)N[C@@H](CCC(=O)O)C(=O)N[C@@H](CO)C(=O)N1CCC[C@H]1C(N)=O)[C@@H](C)O)[C@@H](C)O)[C@@H](C)O [compound 33, [N-terminal(C18 diacid), 9V, 18A]mimylin] ({C18 diacid}-EASELSTAVLGRLSAELAELATLPRTETGPESP-NH2)",≧200 μM,,,≧200 μM,≧200 μM,≧200 μM,≧200 μM,≧200 μM,1,≧200 μM
"CC(C)C[C@H](NC(=O)[C@H](CCC(=O)O)NC(=O)[C@H](Cc1cnc[nH]1)NC(=O)[C@H](CC(C)C)NC(=O)[C@H](CCC(=O)O)NC(=O)[C@H](C)NC(=O)[C@H](CO)NC(=O)[C@H](CC(C)C)NC(=O)[C@H](CCCNC(=N)N)NC(=O)CNC(=O)[C@H](CC(C)C)NC(=O)[C@@H](NC(=O)[C@H](C)NC(=O)[C@@H](NC(=O)[C@H](CO)NC(=O)[C@H](CC(C)C)NC(=O)[C@H](CCC(=O)O)NC(=O)[C@H](CO)NC(=O)[C@H](C)NC(=O)[C@H](CCC(=O)O)NC(=O)CCCCCCCCCCCCCCCCC(=O)O)[C@@H](C)O)C(C)C)C(=O)N[C@@H](C)C(=O)N[C@H](C(=O)N[C@@H](CC(C)C)C(=O)N1CCC[C@H]1C(=O)N[C@@H](CCCNC(=N)N)C(=O)N[C@H](C(=O)N[C@@H](CCC(=O)O)C(=O)N1CCC[C@H]1C(=O)NCC(=O)N1CCC[C@H]1C(=O)N[C@@H](CCC(=O)O)C(=O)N[C@@H](CO)C(=O)N1CCC[C@H]1C(N)=O)[C@@H](C)O)[C@@H](C)O [compound 32, [N-terminal(C18 diacid), 9V, 28P]mimylin] ({C18 diacid}-EASELSTAVLGRLSAELHELATLPRTEPGPESP-NH2)",≧200 μM,≧200 μM,,≧200 μM,≧200 μM,≧200 μM,≧200 μM,≧200 μM,,≧200 μM
"CC(C)C[C@H](NC(=O)[C@H](C)NC(=O)[C@H](C)NC(=O)[C@@H](NC(=O)[C@H](CO)NC(=O)[C@H](CC(C)C)NC(=O)[C@H](CCC(=O)O)NC(=O)[C@H](CO)NC(=O)[C@H](C)N)[C@@H](C)O)C(=O)NCC(=O)N[C@@H](CCCNC(=N)N)C(=O)N[C@@H](CC(C)C)C(=O)N[C@@H](CO)C(=O)N[C@@H](C)C(=O)N[C@@H](CCC(=O)O)C(=O)N[C@@H](CC(C)C)C(=O)N[C@@H](Cc1cnc[nH]1)C(=O)N[C@@H](CCC(=O)O)C(=O)N[C@@H](CC(C)C)C(=O)N[C@@H](C)C(=O)N[C@H](C(=O)N[C@@H](CC(C)C)C(=O)N1CCC[C@H]1C(=O)N[C@@H](CCCNC(=N)N)C(=O)N[C@H](C(=O)N[C@@H](CCCCNC(=O)CC[C@H](NC(=O)CCCCCCCCCCCCCCCCCCC(=O)O)C(=O)O)C(=O)N[C@H](C(=O)NCC(=O)N[C@@H](CO)C(=O)NCC(=O)N[C@@H](CO)C(=O)N1CCC[C@H]1C(N)=O)[C@@H](C)O)[C@@H](C)O)[C@@H](C)O [compound 55, [des1, 27K(C20 diacid-gGlu), 30S, 31G]mimylin]",≧200 μM,≧200 μM,,≧200 μM,≧200 μM,≧200 μM,≧200 μM,≧200 μM,,≧200 μM
"CC(C)C[C@H](NC(=O)[C@H](C)NC(=O)[C@@H](NC(=O)[C@H](CO)NC(=O)[C@H](CC(C)C)NC(=O)[C@H](CCC(=O)O)NC(=O)[C@H](CO)NC(=O)[C@H](C)NC(=O)[C@H](CCC(=O)O)NC(=O)CCCCCCCCCCCCCCCCC(=O)O)[C@@H](C)O)C(=O)N[C@@H](CC(C)C)C(=O)NCC(=O)N[C@@H](CCCNC(=N)N)C(=O)N[C@@H](CC(C)C)C(=O)N[C@@H](CO)C(=O)N[C@@H](C)C(=O)N[C@@H](CCC(=O)O)C(=O)N[C@@H](CC(C)C)C(=O)N[C@@H](Cc1cnc[nH]1)C(=O)N[C@@H](CCC(=O)O)C(=O)N[C@@H](CC(C)C)C(=O)N[C@@H](C)C(=O)N[C@H](C(=O)N[C@@H](CC(C)C)C(=O)N1CCC[C@H]1C(=O)N[C@@H](CCCNC(=N)N)C(=O)N[C@H](C(=O)N[C@@H](CCC(=O)O)C(=O)N[C@H](C(=O)NCC(=O)N1CCC[C@H]1C(=O)N[C@@H](CCC(=O)O)C(=O)N[C@@H](CO)C(=O)N1CCC[C@H]1C(N)=O)[C@@H](C)O)[C@@H](C)O)[C@@H](C)O [compound 14, [N-terminal(C18 diacid), 9L]mimylin] ({C18 diacid}-EASELSTALLGRLSAELHELATLPRTETGPESP-NH2)",≧200 μM,≧200 μM,,≧200 μM,≧200 μM,≧200 μM,≧200 μM,≧200 μM,,≧200 μM
"CC(C)C[C@H](NC(=O)[C@H](C)NC(=O)[C@H](C)NC(=O)[C@@H](NC(=O)[C@H](CO)NC(=O)[C@H](CC(C)C)NC(=O)[C@H](CCC(=O)O)NC(=O)[C@H](CO)NC(=O)[C@H](C)NC(=O)CC[C@H](NC(=O)CCCCCCCCCCCCCCCCCCC(=O)O)C(=O)O)[C@@H](C)O)C(=O)NCC(=O)N[C@@H](Cc1cnc[nH]1)C(=O)N[C@@H](CC(C)C)C(=O)N[C@@H](CO)C(=O)N[C@@H](C)C(=O)N[C@@H](CCC(=O)O)C(=O)N[C@@H](CC(C)C)C(=O)N[C@@H](Cc1cnc[nH]1)C(=O)N[C@@H](CCC(=O)O)C(=O)N[C@@H](CC(C)C)C(=O)N[C@@H](C)C(=O)N[C@H](C(=O)N[C@@H](CC(C)C)C(=O)N1CCC[C@H]1C(=O)N[C@@H](Cc1cnc[nH]1)C(=O)N[C@H](C(=O)N[C@@H](CCC(=O)O)C(=O)N[C@H](C(=O)NCC(=O)N[C@H](C(=O)NCC(=O)N[C@H](C(=O)N1CCC[C@H]1C(N)=O)[C@@H](C)O)[C@@H](C)O)[C@@H](C)O)[C@@H](C)O)[C@@H](C)O [compound 93, [N-terminal(C20 diacid-gGlu), des1, 12H, 25H, 30T, 31G, 32T]mimylin] ({C20 diacid-γGlu}-ASELSTAALGHLSAELHELATLPHTETGTGTP-NH2)",≧200 μM,≧200 μM,,≧200 μM,≧200 μM,≧200 μM,≧200 μM,≧200 μM,,≧200 μM
"CC(C)C[C@H](NC(=O)[C@H](C)NC(=O)[C@H](C)NC(=O)[C@@H](NC(=O)[C@H](CO)NC(=O)[C@H](CC(C)C)NC(=O)[C@H](CCC(=O)O)NC(=O)[C@H](CO)NC(=O)[C@H](C)NC(=O)CC[C@H](NC(=O)CCCCCCCCCCCCCCCCCCC(=O)O)C(=O)O)[C@@H](C)O)C(=O)NCC(=O)N[C@@H](CCCNC(=N)N)C(=O)N[C@@H](CC(C)C)C(=O)N[C@@H](CO)C(=O)N[C@@H](C)C(=O)N[C@@H](CCC(=O)O)C(=O)N[C@@H](CC(C)C)C(=O)N[C@@H](Cc1cnc[nH]1)C(=O)N[C@@H](CCC(=O)O)C(=O)N[C@@H](CC(C)C)C(=O)N[C@@H](C)C(=O)N[C@H](C(=O)N[C@@H](CC(C)C)C(=O)N1CCC[C@H]1C(=O)N[C@@H](CCCNC(=N)N)C(=O)N[C@H](C(=O)N[C@@H](CCC(=O)O)C(=O)N[C@H](C(=O)NCC(=O)N[C@@H](CO)C(=O)NCC(=O)N[C@@H](CO)C(=O)N[C@@H](CO)C(N)=O)[C@@H](C)O)[C@@H](C)O)[C@@H](C)O [compound 63, [N-terminal(C20 diacid-gGlu), des1, 30S, 31G, 33S]mimylin] ({C20 diacid-γGlu}-ASELSTAALGRLSAELHELATLPRTETGSGSS-NH2)",≧200 μM,≧200 μM,,≧200 μM,≧200 μM,≧200 μM,≧200 μM,≧200 μM,,≧200 μM
